This note sets out measurements from patent USRE50082E1, “(5,6-dihydro)pyrimido[4,5-e]indolizines” (NETHERLANDS TRANSLATIONAL RESEARCH CENTER B.V., priority 2014, dated 2024).

pIC50: −log10 of the molar value.

The test system of the assay is MOLT-4 cancer cell line. Nature of the assay: Cell proliferation assay, MOLT-4 cancer cell line (ATPlite).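 Also: luminescence read-out, percent growth versus compound-free DMSO wells as maximum growth, start-of-incubation signal separating growth from cell death, IC50 from logistic curve fit.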 The class given is cell-based. The note with it: Homo sapiens, MOLT-4; 72 hours incubation, ATPlite 1Step; read-out: IC50 MOLT-4 cell proliferation.
Regarding `COCCn1nc(C)c(NC(=O)c2ccn3c2CCc2cnc(Nc4ccc(N5CCN(C)CC5)cc4OC)nc2-3)c1C` [Example 26, N-[1-(2-methoxyethyl)-3,5-dimethyl-pyrazol-4-yl]-2-[2-methoxy-4-(4-methylpiperazin-1-yl)anilino]-5,6-dihydropyrimido[4,5-e]indolizine-7-carboxamide], the pIC50 is 6.82 to 7.30.
In the case of `COc1cc(N2CCN(C)CC2)ccc1Nc1ncc2c(n1)-n1ccc(C(=O)Nc3c(C)n[nH]c3C)c1CC2` [Example 27, N-(3,5-dimethyl-1H-pyrazol-4-yl)-2-[2-methoxy-4-(4-methylpiperazin-1-yl)anilino]-5,6-dihydropyrimido[4,5-e]indolizine-7-carboxamide], the pIC50 is 6.82 to 7.30.
Consider `COc1cc(N2CCN(C)CC2)ccc1Nc1ncc2c(n1)-n1ccc(C(=O)Nc3c(C)nn(C)c3Cl)c1CC2` [Example 28, N-(5-chloro-1,3-dimethyl-pyrazol-4-yl)-2-[2-methoxy-4-(4-methylpiperazin-1-yl)anilino]-5,6-dihydropyrimido[4,5-e]indolizine-7-carboxamide], for which the pIC50 is 6.82 to 7.30.
Consider `CCc1ccccc1NC(=O)c1ccn2c1CCc1cnc(Nc3ccc(N4CCN(C)CC4)cc3OC)nc1-2` [Example 29, N-(2-ethylphenyl)-2-[2-methoxy-4-(4-methylpiperazin-1-yl)anilino]-5,6-dihydropyrimido[4,5-e]indolizine-7-carboxamide], for which the pIC50 is 6.82 to 7.30.
Turning to `CCOc1cc(N2CCN(C)CC2)ccc1Nc1ncc2c(n1)-n1ccc(C(=O)Nc3c(CC)n[nH]c3CC)c1CC2` [Example 31, N-(3,5-diethyl-1H-pyrazol-4-yl)-2-[2-ethoxy-4-(4-methylpiperazin-1-yl)anilino]-5,6-dihydropyrimido[4,5-e]indolizine-7-carboxamide], the pIC50 was 6.82 to 7.30.
For `CCOc1cc(N2CCN(C)CC2)ccc1Nc1ncc2c(n1)-n1ccc(C(=O)Nc3c(C)cccc3CC)c1CC2` [Example 32, 2-[2-Ethoxy-4-(4-methylpiperazin-1-yl)anilino]-N-(2-ethyl-6-methyl-phenyl)-5,6-dihydropyrimido[4,5-e]indolizine-7-carboxamide], the pIC50 is 6.82 to 7.30.
`Cc1cc(N2CCOCC2)ncc1Nc1ncc2c(n1)-n1ccc(C(=O)Nc3c(C)cccc3C)c1CC2` [Example 34, N-(2,6-dimethylphenyl)-2-[(4-methyl-6-morpholino-3-pyridyl)amino]-5,6-dihydropyrimido[4,5-e]indolizine-7-carboxamide]: the pIC50 is 6.82 to 7.30.
The value for `COc1cc(C(=O)NC2CCN(C)CC2)ccc1Nc1ncc2c(n1)-n1ccc(C(=O)Nc3c(C)cccc3Cl)c1CC2` [Example 35, N-(2-chloro-6-methyl-phenyl)-2-[2-methoxy-4-[(1-methyl-4-piperidyl)carbamoyl]anilino]-5,6-dihydropyrimido[4,5-e]indolizine-7-carboxamide] was > 7.30.
The value for `CCc1cccc(CC)c1NC(=O)c1ccn2c1CCc1cnc(Nc3ccc(C(=O)NC4CCN(C)CC4)cc3C)nc1-2` [Example 36, N-(2,6-diethylphenyl)-2-[2-methyl-4-[(1-methyl-4-piperidyl)carbamoyl]anilino]-5,6-dihydropyrimido[4,5-e]indolizine-7-carboxamide] was 6.82 to 7.30.
`Cc1cccc(C)c1NC(=O)c1ccn2c1CCc1cnc(Nc3ccc(C(=O)NC4CCN(C)CC4)cc3OC(F)F)nc1-2` [Example 37, 2-[2-(Difluoromethoxy)-4-[(1-methyl-4-piperidyl)carbamoyl]anilino]-N-(2,6-dimethylphenyl)-5,6-dihydropyrimido[4,5-e]indolizine-7-carboxamide]: the pIC50 was > 7.30.
On to `CCc1cccc(CC)c1NC(=O)c1ccn2c1CCc1cnc(Nc3ccc(-c4cnn(C)c4)cc3OC)nc1-2` [Example 38, N-(2,6-diethylphenyl)-2-[2-methoxy-4-(1-methylpyrazol-4-yl)anilino]-5,6-dihydropyrimido[4,5-e]indolizine-7-carboxamide], for which the pIC50 is 6.82 to 7.30.
On to `COc1cc(OC2CCN(C)CC2)ccc1Nc1ncc2c(n1)-n1ccc(C(=O)Nc3c(C)cccc3C)c1CC2` [Example 39, N-(2,6-dimethylphenyl)-2-[2-methoxy-4-[(1-methyl-4-piperidyl)oxy]anilino]-5,6-dihydropyrimido[4,5-e]indolizine-7-carboxamide], for which the pIC50 was > 7.30.
As to `CCc1cccc(C)c1NC(=O)c1ccn2c1CCc1cnc(Nc3ccc(OC4CCN(C)CC4)cc3OC)nc1-2` [Example 40, N-(2-ethyl-6-methyl-phenyl)-2-[2-methoxy-4-[(1-methyl-4-piperidyl)oxy]anilino]-5,6-dihydropyrimido[4,5-e]indolizine-7-carboxamide], the pIC50 was > 7.30.
Regarding `COc1cc(OC2CCN(C)CC2)ccc1Nc1ncc2c(n1)-n1ccc(C(=O)Nc3c(C)cccc3Cl)c1CC2` [Example 41, N-(2-chloro-6-methyl-phenyl)-2-[2-methoxy-4-[(1-methyl-4-piperidyl)oxy]anilino]-5,6-dihydropyrimido[4,5-e]indolizine-7-carboxamide], the pIC50 was > 7.30.
To `COc1cc(OC2CCN(C)CC2)ccc1Nc1ncc2c(n1)-n1ccc(C(=O)Nc3c(C)cccc3Br)c1CC2` [Example 42, N-(2-bromo-6-methyl-phenyl)-2-[2-methoxy-4-[(1-methyl-4-piperidyl)oxy]anilino]-5,6-dihydropyrimido[4,5-e]indolizine-7-carboxamide] belongs > 7.30; to `CCc1cccc(CC)c1NC(=O)c1ccn2c1CCc1cnc(Nc3ccc(OC4CCN(C)CC4)cc3OC)nc1-2` [Example 43, N-(2,6-diethylphenyl)-2-[2-methoxy-4-[(1-methyl-4-piperidyl)oxy]anilino]-5,6-dihydropyrimido[4,5-e]indolizine-7-carboxamide], > 7.30; to `COCCn1nc(C)c(NC(=O)c2ccn3c2CCc2cnc(Nc4ccc(OC5CCN(C)CC5)cc4OC)nc2-3)c1C` [Example 44, N-[1-(2-methoxyethyl)-3,5-dimethyl-pyrazol-4-yl]-2-[2-methoxy-4-[(1-methyl-4-piperidyl)oxy]anilino]-5,6-dihydropyrimido[4,5-e]indolizine-7-carboxamide], 6.82 to 7.30.
Take `Cc1cc(OC2CCN(C)CC2)ccc1Nc1ncc2c(n1)-n1ccc(C(=O)Nc3c(C)cccc3Cl)c1CC2` [Example 46, N-(2-chloro-6-methyl-phenyl)-2-[2-methyl-4-[(1-methyl-4-piperidyl)oxy]anilino]-5,6-dihydropyrimido[4,5-e]indolizine-7-carboxamide]: the pIC50 was > 7.30.
For the compound `CCc1n[nH]c(CC)c1NC(=O)c1ccn2c1CCc1cnc(Nc3ccc(OC4CCN(C)CC4)cc3C)nc1-2` [Example 47, N-(3,5-diethyl-1H-pyrazol-4-yl)-2-[2-methyl-4-[(1-methyl-4-piperidyl)oxy]anilino]-5,6-dihydropyrimido[4,5-e]indolizine-7-carboxamide], the pIC50 was > 7.30.
Turning to `COc1cc(OCCN(C)C)ccc1Nc1ncc2c(n1)-n1ccc(C(=O)Nc3c(C)cccc3Br)c1CC2` [Example 51, N-(2-bromo-6-methyl-phenyl)-2-[4-(2-dimethylaminoethyloxy)-2-methoxy-anilino]-5,6-dihydropyrimido[4,5-e]indolizine-7-carboxamide], the pIC50 is > 7.30.
As to `CCc1cccc(CC)c1NC(=O)c1ccn2c1CCc1cnc(Nc3ccc(OCCN(C)C)cc3OC)nc1-2` [Example 52, N-(2,6-diethylphenyl)-2-[4-(2-dimethylaminoethyloxy)-2-methoxy-anilino]-5,6-dihydropyrimido[4,5-e]indolizine-7-carboxamide], the pIC50 was 6.82 to 7.30.
For the compound `CCc1n[nH]c(CC)c1NC(=O)c1ccn2c1CCc1cnc(Nc3ccc(OCCN(C)C)cc3OC)nc1-2` [Example 53, N-(3,5-diethyl-1H-pyrazol-4-yl)-2-[4-(2-dimethylaminoethyloxy)-2-methoxy-anilino]-5,6-dihydropyrimido[4,5-e]indolizine-7-carboxamide], the pIC50 is 6.82 to 7.30.
Consider `Cc1cc(N2CCOCC2)ccc1Nc1ncc2c(n1)-n1ccc(C(=O)Nc3c(C)cccc3C)c1CC2` [Example 56, N-(2,6-dimethylphenyl)-2-(2-methyl-4-morpholino-anilino)-5,6-dihydropyrimido[4,5-e]indolizine-7-carboxamide], for which the pIC50 was > 7.30.
Take `Cc1cc(N2CCNCC2)ccc1Nc1ncc2c(n1)-n1ccc(C(=O)Nc3c(C)cccc3C)c1CC2` [Example 58, N-(2,6-dimethylphenyl)-2-(2-methyl-4-piperazin-1-yl-anilino)-5,6-dihydropyrimido[4,5-e]indolizine-7-carboxamide]: the pIC50 is > 7.30.
On to `CCc1cccc(CC)c1NC(=O)c1ccn2c1CCc1cnc(Nc3ccc(OC4CCN(C)C4)cc3OC)nc1-2` (centres unmarked) [Example 59, N-(2,6-diethylphenyl)-2-[2-methoxy-4-(1-methylpyrrolidin-3-yl)oxy-anilino]-5,6-dihydropyrimido[4,5-e]indolizine-7-carboxamide], for which the pIC50 is > 7.30.
With `COc1cc(N2CCN(C)CC2)ccc1Nc1ncc2c(n1)-n1ccc(C(=O)Nc3c(Cl)cccc3Cl)c1CC2` [Example 61, N-(2,6-dichlorophenyl)-2-[2-methoxy-4-(4-methylpiperazin-1-yl)anilino]-5,6-dihydropyrimido[4,5-e]indolizine-7-carboxamide], the pIC50 is > 7.30.
In the case of `COc1cc(OC2CCN(C)CC2)ccc1Nc1ncc2ccc3c(C(=O)Nc4c(C)cccc4C)ccn3c2n1` [Example 62, N-(2,6-dimethylphenyl)-2-[2-methoxy-4-[(1-methyl-4-piperidyl)oxy]anilino]pyrimido[4,5-e]indolizine-7-carboxamide], the pIC50 is > 7.30.
Turning to `Cc1cc(N2CCN(C)CC2)ccc1Nc1ncc2c(n1)-n1ccc(C(=O)Nc3c(C)cccc3C)c1CC2` [Example 63, N-(2,6-dimethylphenyl)-2-[2-methyl-4-(4-methylpiperazin-1-yl)anilino]-5,6-dihydropyrimido[4,5-e]indolizine-7-carboxamide], the pIC50 is > 7.30.
With `CCc1cccc(C)c1NC(=O)c1ccn2c1CCc1cnc(Nc3ccc(N4CCN(C)CC4)cc3C)nc1-2` [Example 64, N-(2-ethyl-6-methyl-phenyl)-2-[2-methyl-4-(4-methylpiperazin-1-yl)anilino]-5,6-dihydropyrimido[4,5-e]indolizine-7-carboxamide], the pIC50 is > 7.30.
